The text below walks through data of publication PMC6820543, “Pig liver esterases PLE1 and PLE6: heterologous expression, hydrolysis of common antibiotics and pharmacological consequences” (Scientific Reports, 2019).

As usually defined, the Km is the substrate concentration at which the rate is half of its maximum.

Data set [1] deals with T1, PLE6 (pig liver esterase 6).
T1 construct: recombinant from pET-15b in E. coli Origami (DE3) with chaperone pGro7, His-tag column; cDNA 1698 bp, 566 residues with 18-residue signal peptide, about 60 kDa
Briefly: LC-MS/MS product quantification, Lineweaver-Burk. As to conditions: Tris-HCl 50 mM pH 7.4, 37 °C, 12.5-800 µM substrate. It counts as biochemical, Sus scrofa.

Substrate in the data set “purified protein”: CC1(C)S[C@@H]2[C@H](NC(=O)[C@H](N)c3ccc(O)cc3)C(=O)N2[C@H]1C(=O)O
In words: purified protein. As to conditions: Tris-HCl 50 mM pH 7.4, 37 °C, 12.5-800 µM substrate, beta-lactam amide hydrolysis to amoxicilloic acid.

Substrate in data set [2]: CC1(C)S[C@@H]2[C@H](NC(=O)[C@H](N)c3ccccc3)C(=O)N2[C@H]1C(=O)O
Briefly: LC-MS/MS product quantification, Lineweaver-Burk. It counts as biochemical, Sus scrofa. As to conditions: Tris-HCl 50 mM pH 7.4, 37 °C, 12.5-800 µM substrate, beta-lactam amide hydrolysis to aminobenzyl-penicilloic acid.

As to `CC1(C)S[C@@H]2[C@H](NC(=O)[C@H](N)c3ccccc3)C(=O)N2[C@H]1C(=O)O` [ampicillin], the Michaelis-Menten constant (Km) in data set [1] (beta-lactam amide hydrolysis to aminobenzyl-penicilloic acid) amounted to 64.2 µM.

As to `CC1(C)S[C@@H]2[C@H](NC(=O)[C@H](N)c3ccc(O)cc3)C(=O)N2[C@H]1C(=O)O` [amoxicillin], the Km in data set [1] (beta-lactam amide hydrolysis to amoxicilloic acid) was 36.7 µM.

B1: PLE1 (pig liver esterase 1) (Sus scrofa) (protein)
chain: GQPASPPVVDTAQGRVLGKYVSLEGLAQPVAVFLGVPFAKPPLGSLRFAPPQPAEPWSFVKNTTSYPPMCCQDPVVEQMTSDLFTNGKERLTLEFSEDCLYLNIYTPADLTKRGRLPVMVWIHGGGLVLGGAPMYDGVVLAAHENVVVVAIQYRLGIWGFFSTGDEHSRGNWGHLDQVAALHWVQENIANFGGDPGSVTIFGESAGGESVSVLVLSPLAKNLFHRAISESGVALTVALVRKDMKAAAKQIAVLAGCKTTTSAVFVHCLRQKSEDELLDLTLKMKFLTLDFHGDQRESHPFLPTVVDGVLLPKMPEEILAEKDFNTVPYIVGINKQEFGWLLPTMMGFPLSEGKLDQKTATSLLWKSYPIANIPEELTPVATDKYLGGTDDPVKKKDLFLDLMGDVMFGVPSVTVARQHRDAGAPTYMYEFQYRPSFSSDKKPKTVIGDHGDEIFSVFGFPLLKGDAPEEEVSLSKMVMKFWANFARSGNPNGEGLPHWPMYDQEEGYLQIGVNTQAAKRLKGEEVAFWNDLLSKEAAKKPPKIKHAEL
notes: recombinant from pET-15b in E. coli Origami (DE3) with chaperone pGro7, His-tag column; cDNA 1698 bp, 566 residues with 18-residue signal peptide, about 60 kDa
With B1, the results for the Km (in “purified protein”; in data set [2]) were 62.04 µM and 89.20 µM, respectively.
